In patent US4861774A, “Method of treating tumors using tetracyclo compounds” (priority 1984, dated 1989):
Values after ≈ are worked out from the molar mass of the structure shown.

How the values were obtained:
[1] = test system: mouse lymphocytic leukemia P388 tumor cells; test: in vitro cytotoxicity, P388 tumor cells, 72 hours (Test 4); type: cell-based; details: 50% inhibition of cell growth, 37° C.
Method: A suspension of mouse lymphocytic leukemia P388 tumor cells was prepared from a diluted ascitic fluid using Hanks' solution after 7 days of tumor implantation, and centrifuged at 1000 rpm for 15 minutes at cold temperature. The cells were adjusted at a concentration of 2.5×10^6 cell/ml in MEM Dulbecco medium supplemented with 10% foetal bovine serum, penicillin G (60 μg/ml) and streptomycin (20 μg/ml). Then, cells were treated with the graded doses of the test compounds in plastic tissue culture dishes at 37° C. and incubated for 72 hours in humidified atmosphere of 5% carbon dioxide. Concentration of the substance required for 50% inhibition of cell growth (IC50 value) (μg/ml) was determined by plotting the logarithms of the drug concentration versus the growth rate (percentage of control) of the treated cells.

L1210 Leukemia [2] = test: L1210 Leukemia in mice, graded doses (Test 11); type: in vivo, mice (CDF1); details: days 1-9
Method: L1210 Leukemia (1×10^5 cells), maintained i.p. by serial passage in female DBA/2 mice, was implanted i.p. to female CDF1 mice on day 0, and the test compounds or vehicle were given i.p. to the mice once a day on days 1-9.
(§1) Ten mice were used for each test group, and twenty mice were used for each vehicle-treated control group.
(§2) Compound R (which was dissolved in 10% polyoxyethylated (60 mol) hydrogenated castor oil in physiological saline solution)
(§3) Drug efficacy against the ascitic tumors is expressed as percentage of the median (mean) survival time of the test group to that of the control group. [formula]

B16 Melanoma [3] = test: B16 Melanoma in mice, graded doses (Test 11); type: in vivo, mice (BDF1); details: days 1-9
Method: (§4) B16 Melanoma (1:10 brei, 0.5 ml), maintained s.c. by serial passage in female C57BL/6 mice, was implanted i.p. to female BDF1 mice on day 0, and the test compounds or vehicle were given i.p. to the mice once a day on days 1-9.
as §1, §2, §3

Human LX-1 lung = Human LX-1 lung tumor in nude mice (Test 9); type: in vivo, human (in BALB/c nu/nu mice); details: 5.6 mg/kg i.v., days 10, 14 & 17; evaluation day 21
Method: (§5) Human LX-1 lung or MX-1 mammary (each fragment, 2×2×2 mm), maintained s.c. by serial passage in male BALB/c nu/nu mice, was implanted s.c. to male BALB/c nu/nu mice on day 0, and the test compounds or vehicle were given i.v. to the mice once a day on specified days in Table 9.
(§6) Tumor weight was calculated as follows: (Tumor length and width were measured by caliper.)
(§7) Tumor weight (mg)=1/2×a×b^2, where a represents length and b represents width (mm).
(§8) Tumor weights (initial) and (last) were calculated on the first injection day (just before dosing) and on day 21, 27 or 28 (the last evaluation day), respectively.
(§9) Five mice were used for each test group and 5 or 10 mice were used for each vehicle-treated control group.
(§10) Drug efficacy was expressed as percentage of mean tumor weight of the test group to that of the control group. [formula]

Human MX-1 mammary = Human MX-1 mammary tumor in nude mice (Test 9); type: in vivo, human (in BALB/c nu/nu mice); details: 32. mg/kg (so in the source) i.v., days 10, 14 & 17; evaluation day 21
Method: as §5, §6, §7, §8, §9, §10

B16 Melanoma [4] = test: B16 Melanoma in mice (Test 5); type: in vivo, mice (BDF1); details: 3.2 mg/kg i.p., days 1-9; in physiological saline
Method: as §4, §1
(§11) Drug efficacy against the ascitic tumors is expressed as percentage of the median (mean) survival time of the test group to that of the control group. [formula] .circle.2 Results

L1210 Leukemia [5] = test: L1210 Leukemia ascitic tumor in mice (Test 5); type: in vivo, mice (BDF1 or CDF1); details: 10.0 mg/kg i.p., days 1-9, CDF1 mice; in physiological saline
Excerpt: L1210 Leukemia (1×10^5 cells), maintained i.p. by serial passage in female DBA/2 mice, was implanted i.p. to female BDF1 or CDF1 mice on day 0, and the test compounds or vehicle were given i.p. to the mice once a day on days 1-9.
as §1, §11

Colon 38 carcinoma = test: in vivo murine solid tumor model, Colon 38 carcinoma (Test 7); set-up: species or system mice; details: 10.0 mg/kg i.v., days 1, 4, 7 and 10; tumor weight on day 21
Method: Colon 38 carcinoma (fragment, 2×2×2 mm), maintained s.c. by serial passage in female C57BL/6 mice, was implanted s.c. to female BDFhd 1 mice on day 0, and the test compounds or vehicle were given i.v. to the mice once a day on days 1, 4, 7 and 10. Tumor weight was measured on day 21.
as §6, §7
Ten mice were used for each test group or vehicle-treated control group.
Drug efficacy against the solid tumor is expressed as percentage of the mean tumor weight of the test group to that of the control group. [formula]

C=C1c2c(OC(C)=O)cc(C=O)cc2N2CC3C(N3C(C)=O)C1(O)O2 (stereo not drawn) [Compound S, 11-Acetyl-4-formyl-9-hydroxy-8-methylene-14-oxa-1,11-diazatetracyclo[7.4.1.0^2,7.0^10,12]tetradeca-2,4,6-trien-6-yl acetate]
IC50 [1]: 0.02 µg/mL

CC(=O)Oc1cc(C=O)cc2c1C(COC(N)=O)C1(OC(C)=O)ON2CC2C1N2C(C)=O (stereo not drawn) [Compound R, 11-Acetyl-4-formyl-8-carbamoyloxymethyl-14-oxa-1,11-diazatetracyclo[7.4.1.0^2,7.0^10,12]tetradeca-2,4,6-trien-6,9-diyl diacetate]
IC50 [1]: 0.05 µg/mL | T/C (L1210 Leukemia [2]; 0.1 mg/kg i.p.): 125% | T/C (L1210 Leukemia [2]; 0.32 mg/kg i.p.): 131% | T/C (L1210 Leukemia [2]; 1.0 mg/kg i.p.): 156% | T/C (L1210 Leukemia [2]; 3.2 mg/kg i.p.): 150% | T/C (L1210 Leukemia [2]; 5.6 mg/kg i.p.): 163% | T/C (L1210 Leukemia [2]; 10 mg/kg i.p.): 106% | T/C (L1210 Leukemia [2]; 18 mg/kg i.p.): 88% | T/C (B16 Melanoma [3]; 0.0032 mg/kg i.p.): 106% | T/C (B16 Melanoma [3]; 0.01 mg/kg i.p.): 122% | T/C (B16 Melanoma [3]; 0.032 mg/kg i.p.): 166% | T/C (B16 Melanoma [3]; 0.1 mg/kg i.p.): 219% | T/C (B16 Melanoma [3]; 0.32 mg/kg i.p.): 213% | T/C (B16 Melanoma [3]; 0.56 mg/kg i.p.): > 291% | T/C (B16 Melanoma [3]; 1.0 mg/kg i.p.): > 375% | T/C (B16 Melanoma [3]; 1.8 mg/kg i.p.): > 375% | T/C (B16 Melanoma [3]; 3.2 mg/kg i.p.): 225% | T/C (B16 Melanoma [3]; 5.6 mg/kg i.p.): 134% | T/C (B16 Melanoma [3]; 10 mg/kg i.p.): 66% | 1-T"/C" (Human LX-1 lung): 90% | 1-T"/C" (Human MX-1 mammary): 99% | T/C (B16 Melanoma [4]): > 316% | T/C (L1210 Leukemia [5]): 197% | 1-T'/C' (Colon 38 carcinoma): 100% | Solubility (Solubility; acetone): Soluble | Solubility (Solubility; chloroform): Soluble | Solubility (Solubility; methanol): Soluble | Solubility (Solubility; water): Insoluble

COc1cc(C=O)cc2c1C(COC(N)=O)C1(OC(C)=O)ON2CC2C1N2C(C)=O (stereo not drawn) [Compound V, 11-Acetyl-8-carbamoyloxymethyl-4-formyl-6-methoxy-14-oxa-1,11-diazatetracyclo[7.4.1.0^2,7.0^10,12]tetradeca-2,4,6-trien-9-yl acetate]
IC50 [1]: 0.02 µg/mL

COc1cc(C=O)cc2c1C(COC(N)=O)C1(O)ON2CC2C1N2C(C)=O (stereo not drawn) [Compound W, 11-Acetyl-4-formyl-9-hydroxy-6-methoxy-14-oxa-1,11-diazatetracyclo[7.4.1.0^2,7.0^10,12]tetradeca-2,4,6-trien-8-ylmethyl carbamate]
IC50 [1]: 0.01 µg/mL (≈ 0.0265 µM)

CC(=O)OCc1cc(OC(C)=O)c2c(c1)N1CC3C(N3C(C)=O)C(O)(O1)C2COC(N)=O (stereo not drawn) [Compound T, 11-Acetyl-4-acetoxymethyl-8-carbamoyloxymethyl-9-hydroxy-14-oxa-1,11-diazatetracyclo[7.4.1.0^2,7.0^10,12]tetradeca-2,4,6-trien-6-yl acetate]
IC50 [1]: 0.02 µg/mL

CC(=O)OCc1cc(OC(C)=O)c2c(c1)N1CC3C(N3C(C)=O)C(OC(C)=O)(O1)C2COC(N)=O (stereo not drawn) [Compound U, 4-Acetoxymethyl-11-acetyl-8-carbamoyloxymethyl-14-oxa-1,11-diazatetracyclo[7.4.1.0^2,7.0^10,12]tetradeca-2,4,6-trien-6,9-diyl diacetate]
IC50 [1]: 0.01 to 0.02 µg/mL
